What was measured:
[1] = target: T1, catalytic domain of human Bub1 (amino acids 704-1085) (Homo sapiens, UniProt O43683); experiment: Bub1 kinase assay (TR-FRET); type: biochemical; conditions: 10 μM ATP, 1 μM peptide substrate, median, read-out: Biological Assay 1: Bub1 kinase assay median IC50
T1 construct: catalytic domain of human Bub1 (amino acids 704-1085); His6 (N); made in house; host or cells: Hi5 insect cells
Excerpt: Bub1-inhibitory activities of compounds described in the present invention were quantified using a time-resolved fluorescence energy transfer (TR-FRET) kinase assay which measures phosphorylation of the synthetic peptide Biotin-Ahx-VLLPKKSFAEPG (C-terminus in amide form), purchased from e.g. Biosyntan (Berlin, Germany) by the (recombinant) catalytic domain of human Bub1 (amino acids 704-1085), expressed in Hi5 insect cells with an N-terminal His6-tag and purified by affinity-(Ni-NTA) and size exclusion chromatography.
In a typical assay 11 different concentrations of each compound (0.1 nM, 0.33 nM, 1.1 nM, 3.8 nM, 13 nM, 44 nM, 0.15 μM, 0.51 μM, 1.7 μM, 5.9 μM and 20 μM) were tested in duplicate within the same microtiter plate. To this end, 100-fold concentrated compound solutions (in DMSO) were previously prepared by serial dilution (1:3.4) of 2 mM stocks in a clear low volume 384-well source microtiter plate (Greiner Bio-One, Frickenhausen, Germany), from which 50 nL of compounds were transferred into a black low volume test microtiter plate from the same supplier. Subsequently, 2 μL of Bub1 (the final concentration of Bub1 was adjusted depending on the activity of the enzyme lot in order to be within the linear dynamic range of the assay: typically ˜200 ng/mL were used) in aqueous assay buffer [50 mM Tris/HCl pH 7.5, 10 mM magnesium chloride (MgCl2), 200 mM potassium chloride (KCl), 1.0 mM dithiothreitol (DTT), 0.1 mM sodium ortho-vanadate, 1% (v/v) glycerol, 0.01% (w/v) bovine serum albumine (BSA), 0.005% (v/v) Trition X-100 (Sigma), 1× Complete EDTA-free protease inhibitor mixture (Roche)] were added to the compounds in the test plate and the mixture was incubated for 15 min at 22° C. to allow pre-equilibration of the putative enzyme-inhibitor complexes before the start of the kinase reaction, which was initiated by the addition of 3 μL 1.67-fold concentrated solution (in assay buffer) of adenosine-tri-phosphate (ATP, 10 μM final concentration) and peptide substrate (1 μM final concentration). The resulting mixture (5 μL final volume) was incubated at 22° C. during 60 min., and the reaction was stopped by the addition of 5 μL of an aqueous EDTA-solution (50 mM EDTA, in 100 mM HEPES pH 7.5 and 0.2% (w/v) bovine serum albumin) which also contained the TR-FRET detection reagents (0.2 μM streptavidin-XL665 [Cisbio Bioassays, Codolet, France] and 1 nM anti-phosho-Serine antibody [Merck Millipore, cat. #35-001] and 0.4 nM LANCE EU-W1024 labeled anti-mouse IgG antibody [Perkin-Elmer, product no. AD0077, alternatively a Terbium-cryptate-labeled anti-mouse IgG antibody from Cisbio Bioassays can be used]). The stopped reaction mixture was further incubated 1 h at 22° C. in order to allow the formation of complexes between peptides and detection reagents. Subsequently, the amount of product was evaluated by measurement of the resonance energy transfer from the Eu-chelate-antibody complex recognizing the Phosphoserine residue to the streptavidin-XL665 bound to the biotin moiety of the peptide. To this end, the fluorescence emissions at 620 nm and 665 nm after excitation at 330-350 nm were measured in a TR-FRET plate reader, e.g. a Rubystar or Pherastar (both from BMG Labtechnologies, Offenburg, Germany) or a Viewlux (Perkin-Elmer) and the ratio of the emissions (665 nm/622 nm) was taken as indicator for the amount of phosphorylated substrate. The data were normalised using two sets of (typically 32—) control wells for high—(=enzyme reaction without inhibitor=0% =Minimum inhibition) and low—(=all assay components without enzyme=100%=Maximum inhibition) Bub1 activity. IC50 values were calculated by fitting the normalized inhibition data to a 4-parameter logistic equation (Minimum, Maximum, IC50, Hill; Y=Max+(Min−Max)/(1+(X/IC50)Hill)).

[2] = tested on: HeLa human cervical cancer cell line; experiment: Proliferation assay (crystal violet staining); type: cell-based; conditions: 96 h, HeLa cells, 4 days incubation, median, read-out: Biological Assay 2: Proliferation assay (HeLa cell line) median IC50
Method: Cultivated tumor cells (cells were ordered from ATCC) were plated at a density of 3000 cells/well in a 96-well multititer plate in 200 μL of growth medium supplemented 10% fetal calf serum. After 24 hours, the cells of one plate (zero-point plate) were stained with crystal violet (see below), while the medium of the other plates was replaced by fresh culture medium (200 μL), to which the test substances were added in various concentrations (0 μM, as well as in the range of 0.001-10 μM; the final concentration of the solvent dimethyl sulfoxide was 0.5%). The cells were incubated for 4 days in the presence of test substances. Cell proliferation was determined by staining the cells with crystal violet: the cells were fixed by adding […] of an 11% glutaric aldehyde solution for 15 minutes at room temperature. After three washing cycles of the fixed cells with water, the plates were dried at room temperature. The cells were stained by adding 100 μL/measuring point of a 0.1% crystal violet solution (pH 3.0). After three washing cycles of the stained cells with water, the plates were dried at room temperature. The dye was dissolved by adding 100 μL/measuring point of a 10% acetic acid solution. Absorbtion was determined by photometry at a wavelength of 595 nm. The change of cell number, in percent, was calculated by normalization of the measured values to the absorbtion values of the zero-point plate(=0%) and the absorbtion of the untreated (0 μm) cells(=100%). The IC50 values were determined by means of a 4 parameter fit.

T1 sequence (O43683 704-1085): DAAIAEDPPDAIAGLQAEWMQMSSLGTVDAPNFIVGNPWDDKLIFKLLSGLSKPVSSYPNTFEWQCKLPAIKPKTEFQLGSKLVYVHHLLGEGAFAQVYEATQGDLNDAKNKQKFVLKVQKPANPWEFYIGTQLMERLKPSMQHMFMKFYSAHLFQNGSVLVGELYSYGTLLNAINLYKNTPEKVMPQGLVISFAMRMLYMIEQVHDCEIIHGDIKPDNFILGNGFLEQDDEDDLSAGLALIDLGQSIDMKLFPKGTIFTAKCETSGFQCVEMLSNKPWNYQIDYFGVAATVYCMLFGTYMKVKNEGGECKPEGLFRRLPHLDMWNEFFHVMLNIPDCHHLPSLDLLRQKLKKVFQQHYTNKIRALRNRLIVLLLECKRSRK

| Structure (SMILES) | IC50 [1] [nM] | IC50 [2] [nM] |
| --- | --- | --- |
| COc1cnc(-c2cc(OC)n(Cc3ccccc3F)n2)nc1Nc1ccncn1 [Example 2-1-7, 2-[1-(2-fluorobenzyl)-5-methoxy-1H-pyrazol-3-yl]-5-methoxy-N-(pyrimidin-4-yl)pyrimidin-4-amine] | 3600 | > 10000 |
| CCOc1cc(F)c(Cn2cc(C)c(-c3ncc(OC)c(Nc4ccncn4)n3)n2)c(F)c1 [Example 2-1-5, 2-[1-(4-ethoxy-2,6-difluorobenzyl)-4-methyl-1H-pyrazol-3-yl]-5-methoxy-N-(pyrimidin-4-yl)pyrimidin-4-amine] | 85 | > 10000 |
| CCOc1cc(F)c(Cn2cc(Cl)c(-c3ncc(OC)c(Nc4ccncn4)n3)n2)c(F)c1 [Example 2-1-6, 2-[4-chloro-1-(4-ethoxy-2,6-difluorobenzyl)-1H-pyrazol-3-yl]-5-methoxy-N-(pyrimidin-4-yl)pyrimidin-4-amine] | 100 | > 10000 |
| CCOc1cc(F)c(Cn2nc(-c3ncc(OC)c(Nc4ccnnc4)n3)c(C)c2C2CC2)c(F)c1 [Example 2-1-4, N-{2-[5-cyclopropyl-1-(4-ethoxy-2,6-difluorobenzyl)-4-methyl-1H-pyrazol-3-yl]-5-methoxy-pyrimidin-4-yl}pyridazin-4-amine] | 52 | > 10000 |

Other lines, results leading:

| IC50 [1] [nM] | IC50 [2] [nM] | Structure (SMILES) |
| --- | --- | --- |
| 17 | > 10000 | CCOc1cc(F)c(Cn2nc(-c3nccc(Nc4ccncn4)n3)c(C)c2C2CC2)c(F)c1 [Example 2-1-3, 2-[5-cyclopropyl-1-(4-ethoxy-2,6-difluorobenzyl)-4-methyl-1H-pyrazol-3-yl]-N-(pyrimidin-4-yl)pyrimidin-4-amine] |
| 16 | 3500 | CCOc1cc(F)c(Cn2nc(-c3ncc(OC)c(Nc4ccncn4)n3)c(C)c2C2CC2)c(F)c1 [Example 2-1-2, 2-[5-cyclopropyl-1-(4-ethoxy-2,6-difluorobenzyl)-4-methyl-1H-pyrazol-3-yl]-5-methoxy-N-(pyrimidin-4-yl)pyrimidin-4-amine] |
| 5 | > 10000 | CCOc1cc(F)c(Cn2nc(-c3nccc(Nc4ccncn4)n3)c(Cl)c2C2CC2)c(F)c1 [Example 2-1-1, 2-[4-chloro-5-cyclopropyl-1-(4-ethoxy-2,6-difluorobenzyl)-1H-pyrazol-3-yl]-N-(pyrimidin-4-yl)pyrimidin-4-amine] |

— US20160168130A1, “HETEROARYL SUBSTITUTED PYRAZOLES” (BAYER PHARMA AKTIENGESELLSCHAFT, priority 2013, published 2016)
